The values that follow come from article PMC9352307 (Biochemistry, 2022).

pIC50: −log10 of the molar value.

The target of assay [1] is T1, NADP^+-dependent malic enzyme 1 (ME1) (Homo sapiens, UniProt P48163).
T1 sequence (P48163 1-572): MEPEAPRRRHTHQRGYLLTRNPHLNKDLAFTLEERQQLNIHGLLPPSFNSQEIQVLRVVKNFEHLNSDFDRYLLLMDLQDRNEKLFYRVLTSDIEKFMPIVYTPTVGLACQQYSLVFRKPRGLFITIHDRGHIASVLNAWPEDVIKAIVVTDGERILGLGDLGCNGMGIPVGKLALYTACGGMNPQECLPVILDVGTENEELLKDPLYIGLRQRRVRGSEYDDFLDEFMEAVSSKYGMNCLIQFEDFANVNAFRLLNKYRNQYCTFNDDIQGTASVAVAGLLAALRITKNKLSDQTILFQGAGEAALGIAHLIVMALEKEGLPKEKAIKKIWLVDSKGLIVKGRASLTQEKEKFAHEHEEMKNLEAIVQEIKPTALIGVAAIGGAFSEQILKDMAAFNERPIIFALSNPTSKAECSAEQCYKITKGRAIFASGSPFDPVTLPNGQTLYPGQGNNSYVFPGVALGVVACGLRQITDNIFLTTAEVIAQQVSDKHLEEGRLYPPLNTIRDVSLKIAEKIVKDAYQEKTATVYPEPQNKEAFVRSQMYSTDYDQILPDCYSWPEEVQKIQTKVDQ
Put plainly: X-ray crystal structure. The class given is biochemical.

Assay [2] concerns the target T1, NADP^+-dependent malic enzyme 1 (ME1). Put plainly: Michaelis–Menten enzyme kinetics. The assay is classed as biochemical.

As a reminder, the pIC50 is the IC50 on a negative log10 scale, so that one unit is a factor of ten. In assay [1], `CCCc1nc2c(C)ccn(Cc3ccc4nc(-c5ccccc5-c5nnn[nH]5)sc4c3)c-2n1` [AS1134900, 6-[(7-methyl-2-propylimidazo[4,5-b]pyridin-4-yl)methyl]-2-[2-(1H-tetrazol-5-yl)phenyl]-1,3-benzothiazole] gave a pIC50 of 6.14. As to `NC(=O)c1ccc[n+]([C@@H]2O[C@H](COP(=O)(O)OP(=O)(O)OC[C@H]3O[C@@H](n4cnc5c(N)ncnc54)[C@H](OP(=O)(O)O)[C@@H]3O)[C@@H](O)[C@H]2O)c1` [NADP^+], in assay [2], the Michaelis-Menten enzyme kinetics entry was “enzyme kinetics were examined using various concentrations of malate or NADP^+”. Same read-out and setting: as for `O=C(O)CC(O)C(=O)O` (stereo not drawn) [malate], the entry is “Michaelis–Menten plot of ME1 activity in the presence of AS1134900 vs DL-malate”.
